Assay: xn = mol fraction of the nth substance listed
Settings: 101 kPa

CCCCCC[n+]1ccn(C)c1.F[B-](F)(F)F + CC(C)O
viscosity [mPa·s]
Settings	x2 = 0	x2 = 0.1493	x2 = 0.2289	x2 = 0.2992	x2 = 0.3752	x2 = 0.4942	x2 = 0.5845	x2 = 0.7067	x2 = 0.762	x2 = 0.9165
293.15 K	230	113	78	57.1	41	24.9	16.8	10.05	7.82	–
303.15 K	130	–	48.2	36.1	–	16.9	–	–	–	2.65
313.15 K	78	42.6	31.7	–	18.8	12.2	8.53	5.15	–	1.96
323.15 K	–	28.1	–	–	14.6	9.3	6.62	3.95	3.04	1.5
333.15 K	–	–	16.3	13.2	–	7.04	5.06	3.05	–	1.02

CC(C)O + CCCCCC[n+]1ccn(C)c1.F[B-](F)(F)F
x1 = 1
Settings	viscosity [mPa·s]
293.15 K	2.36
303.15 K	1.77
313.15 K	1.33
323.15 K	1.01

Source: a compilation of properties of binary mixtures (doi:10.1016/j.molliq.2012.02.004)
